US10723741B1, “DNA polymerase IIIC inhibitors and use thereof” (Acurx Pharmaceuticals, LLC, priority 2018, dated 2020)
≈ marks a conversion by molar mass, not a printed value. Read-outs that look alike come from different tables or passages of the source.

How the values were obtained:
Type in all cases: cell-based
[1] = tested on: Staphylococcus aureus NRS384 (MRSA); assay: Broth microdilution MIC, S. aureus NRS384 (MRSA); conditions: Staphylococcus aureus, broth microdilution, 37° C., 20 hours
Text: (§1) Bacteria tested are Staphylococcus aureus NRS384 (a methicillin-resistant Staphylococcus aureus, MRSA), Staphylococcus aureus ATCC 29213 (a methicillin-sensitive Staphylococcus aureus, MSSA), Streptococcus pneumoniae ATCC 49619, Enterococcus faecalis ATCC 29212, Enterococcus faecium ATCC 700221 (a vancomycin-resistant enterococcus, VRE), Bacillus subtilis ATCC 6633, and Escherichia coli ATCC 25922.
(§2) Staphylococcus aureus NRS384 was obtained from NARSA (Network on Antimicrobial Resistance in Staphylococcus aureus, now the strain collection is in BEI resources). Other bacterial isolates were from ATCC (The American Type Culture Collection). Upon receiving the bacteria samples from aforementioned institutes, the bacteria were cultured according to the manuals provided by the suppliers. The bacteria were stored in 25% glycerol (final concentration) at −80° C.
(§3) On the day of testing, the compounds were dissolved in pure DMSO (Sigma 276855-1L) to […] as stock. In a v-bottom 96-well plate (Axygen-wipp02280), 20 μl DMSO was added into well 2 to well 12 by manual pipetting. Into well 1, 12.8 μL of compound DMSO stock (20 mg/ml) was added and mixed with 27.2 μl DMSO by pipetting. Two fold serial dilutions were performed by transferring and mixing 20 μl of solution from well 1 to well 2, then well 2 to well 3 and so forth until well 11. The well 12 was loaded with 20 μl DMSO without compounds. This was drug ‘mother plate’. From well 1 to well 12, the drug concentrations in the mother plate were […] in DMSO. A multi-pipette was used to perform the serial dilutions. The concentration may be adjusted according to the potency of the compounds. An Echo® Acoustic liquid handling system may be used to replace manual pipetting to make the daughter plates.
(§4) One day prior to the day of MIC testing, bacterial strains were streaked out from −80° C. glycerol stocks onto MHA plates and incubated at 37° C. for 20 hours. Streptococcus pneumoniae was streaked on blood agar and incubated at 37° C. in 5% CO2. The single colonies were picked by using an inoculation loop (Greiner-731175) and suspended into 5 ml sterile saline. The turbidity of the suspension was adjusted to 0.10 (Siemens MicroScan turbidity meter), equal to ˜1.0×10^8 cfu/ml. The bacterial suspension was diluted 200× in corresponding test medium (Table 1). This was used to inoculate daughter plates.
(§5) For preparing u-bottom 96-well ‘daughter plates’ (Costar 3788), an aliquot of 1 μl solution from mother plate was then replicating transferred into the daughter plate using a multi-pipette.
(§6) An aliquot of 99 μl of the bacterial suspension was inoculated into each well of the daughter plates using a multi-pipette. Each well contained ˜5.0×10^5 cfu/ml bacteria, 1% DMSO and serially diluted compounds at 64, 32, 16, 8, 4, 2, 1, 0.5, 0.25, 0.125, 0.0625 and 0 μg/ml from well 1 to well 12 respectively, in 100 μl corresponding test medium.
(§7) The plates were incubated in ambient atmosphere and in a 37° C. incubator for 20 hours.
(§8) Compounds of the present invention were tested for antibacterial activity against a variety of bacterial organism including Bacillus subtilis, Staphylococcus aureus, Enterococcus faecalis, Enterococcus faecium, Streptococcus pneumoniae and Escherichia coli. […] Compounds described in Examples 2, 44, 53, 56, 90, 134, 212, 213, 214, 218, 222, 304, 305, and 307 had MIC of ≤1 μg/ml against S. aureus NRS 384 (MRSA) (μg/ml) and E. faecium ATCC 700221 (VRE) (μg/ml).

[2] = tested on: Escherichia coli ATCC 25922; assay: Broth microdilution MIC, E. coli ATCC 25922 (MHIIB w & w/o 4 mM EDTA); conditions: broth microdilution, 37° C., 20 hours; for MIC: Escherichia coli, ATCC25922, without EDTA, read-out: MIC E. coli ATCC 25922; for MIC E. coli ATCC 25922 + 4 mM EDTA: with 4 mM EDTA
Text: as §1, §2, §3, §4, §5, §6, §7, §8

[3] = tested on: Enterococcus faecalis ATCC 29212; assay: Broth microdilution MIC, E. faecalis ATCC 29212; conditions: ATCC29212, broth microdilution, 37° C., 20 hours, read-out: MIC E. faecalis ATCC 29212
Text: as §1, §2, §3, §4, §5, §6, §7, §8

[4] = tested on: Streptococcus pneumoniae ATCC 49619; assay: Broth microdilution MIC, S. pneumoniae ATCC 49619; conditions: ATCC49619, broth microdilution, 37° C., 20 hours, read-out: MIC S. pneumoniae ATCC 49619
Text: as §1, §2, §3, §4, §5, §6, §7, §8

[5] = tested on: Staphylococcus aureus ATCC 29213 (MSSA); assay: Broth microdilution MIC, S. aureus ATCC 29213 (MSSA); conditions: broth microdilution, 37° C., 20 hours, read-out: MIC S. aureus ATCC 29213 (MSSA)
Text: as §1, §2, §3, §4, §5, §6, §7, §8

[6] = tested on: Bacillus subtilis ATCC 6633; assay: Broth microdilution MIC, B. subtilis ATCC 6633; conditions: ATCC6633, broth microdilution, 37° C., 20 hours, read-out: MIC B. subtilis ATCC 6633
Text: as §1, §2, §3, §4, §5, §6, §7, §8

[7] = tested on: Enterococcus faecium ATCC 700221 (VRE); assay: Broth microdilution MIC, E. faecium ATCC 700221 (VRE); conditions: Enterococcus faecium, broth microdilution, 37° C., 20 hours
Text: as §1, §2, §3, §4, §5, §6, §7, §8

[8] = read-out: MIC E. faecium ATCC 700221 (VRE)

Row | Structure (SMILES) | MIC ([1]; read-out: MIC NRS 384 (MRSA)) | MIC [2] | MIC E. coli ATCC 25922 + 4 mM EDTA [2] | MIC [3] | MIC [4] | MIC [5] | MIC [6] | MIC [7, 8] | MIC ([1]; MHIIB, read-out: MIC against S. aureus NRS 384 (MRSA)) | MIC ([7]; MHIIB, read-out: MIC against E. faecium ATCC 700221 (VRE)) | MIC ([1]; S. aureus NRS 384, read-out: MIC NRS 384 (MRSA))
1 | Cl.O=c1[nH]c(NCc2ccc(Cl)c(Cl)c2)nc2cn(Cn3cncn3)nc12 [Compound 103, 2-((1H-1,2,4-triazol-1-yl)methyl)-5-((3,4-dichlorobenzyl)amino)-2H-pyrazolo[4,3-d]pyrimidin-7(6H)-one hydrochloride] | 64 µg/mL | > 64 µg/mL | 64 µg/mL | > 64 µg/mL | 16 µg/mL | 64 µg/mL | 32 µg/mL | 64 µg/mL |  |  | 
2 | O=c1[nH]c(NCc2ccc(Cl)c(Cl)c2)nc2cnn(-c3ccncc3)c12 [Compound 222, 5-[(3,4-dichlorophenyl)methylamino]-1-(4-pyridyl)-6H-pyrazolo[4,3-d]pyrimidin-7-one] | 1 µg/mL (≈ 2.58 µM) | > 64 µg/mL | 64 µg/mL | 4 µg/mL (≈ 10.3 µM) | 2 µg/mL (≈ 5.16 µM) | 2 µg/mL (≈ 5.16 µM) | 1 µg/mL (≈ 2.58 µM) | 2 µg/mL (≈ 5.16 µM) | ≤ 1 µg/mL | ≤ 1 µg/mL | 
3 | O=c1[nH]c(NCc2ccc(Cl)c(Cl)c2)nc2cnn(CCCc3nnn[nH]3)c12 [Compound 221, 1-(3-(1H-tetrazol-5-yl)propyl)-5-((3,4-dichlorobenzyl)amino)-1H-pyrazolo[4,3-d]pyrimidin-7(6H)-one] | > 64 µg/mL | > 64 µg/mL | >64 µg/mL | > 64 µg/mL | 64 µg/mL (≈ 152 µM) | > 64 µg/mL | > 64 µg/mL | 32 µg/mL (≈ 76.1 µM) |  |  | 
4 | CNC(=O)C(C)(C)CCCn1ncc2nc(NCc3ccc(Cl)c(Cl)c3)[nH]c(=O)c21 [Compound 198, 5-(5-((3,4-dichlorobenzyl)amino)-7-oxo-6,7-dihydro-1H-pyrazolo[4,3-d]pyrimidin-1-yl)-N,2,2-trimethylpentanamide] | 16 µg/mL (≈ 35.4 µM) | > 64 µg/mL | >64 µg/mL | 16 µg/mL (≈ 35.4 µM) | 16 µg/mL (≈ 35.4 µM) | 16 µg/mL (≈ 35.4 µM) | 4 µg/mL (≈ 8.86 µM) | 16 µg/mL (≈ 35.4 µM) |  |  | 
5 | O=c1[nH]c(NCc2ccc(F)c(F)c2)nc2c(F)nn(CC3CCO3)c12 (stereo not shown) [Compound 315, 5-[(3,4-difluorophenyl)methylamino]-3-fluoro-1-(oxetan-2-ylmethyl)-6H-pyrazolo[4,3-d]pyrimidin-7-one] |  | > 64 µg/mL | >64 µg/mL | 8 µg/mL (≈ 21.9 µM) | 2 µg/mL (≈ 5.47 µM) | 4 µg/mL (≈ 10.9 µM) | 1 µg/mL (≈ 2.74 µM) | 2 µg/mL (≈ 5.47 µM) |  |  | 4 µg/mL (≈ 10.9 µM)
6 | Cl.O=C([C@@H]1C[C@H](O)CN1)N1CCC(n2ncc3nc(NCc4ccc(Cl)c(Cl)c4)[nH]c(=O)c32)CC1 [Compound 278, 5-((3,4-dichlorobenzyl)amino)-1-(1-((2S,4S)-4-hydroxypyrrolidine-2-carbonyl)piperidin-4-yl)-1H-pyrazolo[4,3-d]pyrimidin-7(6H)-one hydrochloride] | > 64 µg/mL | > 64 µg/mL | >64 µg/mL | > 64 µg/mL | 32 µg/mL | > 64 µg/mL | 32 µg/mL | 64 µg/mL |  |  | 
7 | Cl.O=C(c1cccnc1)N1CCCC(Cn2ncc3nc(NCc4ccc(Cl)c(Cl)c4)[nH]c(=O)c32)C1 (stereo not shown) [Compound 280, 5-((3,4-dichlorobenzyl)amino)-1-((1-nicotinoylpiperidin-3-yl)methyl)-1H-pyrazolo[4,3-d]pyrimidin-7(6H)-one hydrochloride] | 16 µg/mL | > 64 µg/mL | >64 µg/mL | 16 µg/mL | 8 µg/mL | 16 µg/mL | 16 µg/mL | 8 µg/mL |  |  | 
8 | CN1CCOC(Cn2ncc3nc(NCc4ccc(Cl)c(Cl)c4)[nH]c(=O)c32)C1.Cl (stereo not shown) [Compound 147, 5-((3,4-dichlorobenzyl)amino)-1-((4-methylmorpholin-2-yl)methyl)-1H-pyrazolo[4,3-d]pyrimidin-7(6H)-one hydrochloride] | 4 µg/mL | > 64 µg/mL | 64 µg/mL | 8 µg/mL | 4 µg/mL | 8 µg/mL | 2 µg/mL | 2 µg/mL |  |  | 
9 | CC(C)(C)OC(=O)N1CCCC(CN2CCC(n3ncc4nc(NCc5ccc(Cl)c(Cl)c5)[nH]c(=O)c43)CC2)C1.Cl (stereo not shown) [Compound 250] | > 64 µg/mL | > 64 µg/mL | >64 µg/mL | > 64 µg/mL | 8 µg/mL | > 64 µg/mL | 4 µg/mL | 4 µg/mL |  |  | 
10 | COCCN1CCC(n2ncc3nc(NCc4ccc(Cl)c(Cl)c4)[nH]c(=O)c32)CC1.Cl [Compound 157, 5-((3,4-dichlorobenzyl)amino)-1-(1-(2-methoxyethyl)piperidin-4-yl)-1H-pyrazolo[4,3-d]pyrimidin-7(6H)-one hydrochloride] | 4 µg/mL | > 64 µg/mL | 64 µg/mL | 8 µg/mL | 4 µg/mL | 8 µg/mL | 2 µg/mL | 2 µg/mL |  |  | 
11 | O=c1[nH]c(NCc2ccc(Cl)c(Cl)c2)nc2cnn(C[C@@H]3CO[C@@H](CO)CO3)c12 [Compound 207, 5-((3,4-dichlorobenzyl)amino)-1-(((2R,5S)-5-(hydroxymethyl)-1,4-dioxan-2-yl)methyl)-1H-pyrazolo[4,3-d]pyrimidin-7(6H)-one] | 16 µg/mL (≈ 36.3 µM) | > 64 µg/mL | >64 µg/mL | 8 µg/mL (≈ 18.2 µM) | 8 µg/mL (≈ 18.2 µM) | 16 µg/mL (≈ 36.3 µM) | 2 µg/mL (≈ 4.54 µM) | 4 µg/mL (≈ 9.08 µM) |  |  | 
12 | O=c1[nH]c(NCc2ccc(Cl)c(Cl)c2)nc2cnn(CC3COC3)c12 [Compound 118, 5-((3,4-Dichlorobenzyl)amino)-1-(oxetan-3-ylmethyl)-1H-pyrazolo[4,3-d]pyrimidin-7(6H)-one] | 2 µg/mL (≈ 5.26 µM) | > 64 µg/mL | >64 µg/mL | 2 µg/mL (≈ 5.26 µM) | 2 µg/mL (≈ 5.26 µM) | 2 µg/mL (≈ 5.26 µM) | 0.5 µg/mL (≈ 1.31 µM) | 1 µg/mL (≈ 2.63 µM) |  |  | 
13 | CC(C)OC(=O)CCCn1ncc2nc(NCc3ccc(Cl)c(Cl)c3)[nH]c(=O)c21 [Compound 206, isopropyl 4-(5-((3,4-dichlorobenzyl)amino)-7-oxo-6,7-dihydro-1H-pyrazolo[4,3-d]pyrimidin-1-yl)butanoate] | > 64 µg/mL | > 64 µg/mL | >64 µg/mL | > 64 µg/mL | 16 µg/mL (≈ 36.5 µM) | > 64 µg/mL | 1 µg/mL (≈ 2.28 µM) | 4 µg/mL (≈ 9.13 µM) |  |  | 
